SMILES strings stand for the structures.

The assay concerns Glycine max. The experiment in a line: Inhibition of soybean 15-lipoxygenase.

`O=C(O)c1ccccc1O`: the inhibition worked out at 48.4%.

The molecule `O=C(O)c1ccccc1` yielded an inhibition of 51.6%.

Consider `O=C(O)c1cc(O)ccc1O`, for which the inhibition worked out at 49.9%.

The molecule `O=C(O)c1ccc(O)cc1O` registered an inhibition of 47.7%.

`O=C(O)c1cccc(O)c1O` had an inhibition of 47%.

As for `O=C(O)c1cc(O)cc(O)c1`, the inhibition is 58.1%.

`O=C(O)c1c(O)cccc1O` registered an inhibition of 21.2%.

For `COc1cc(C(=O)O)ccc1O`, the inhibition was 45.4%.

`O=C(O)c1ccc(O)cc1`: the inhibition was 47.6%.

Regarding `O=C(O)c1cccc(O)c1`, the inhibition stood at 46%.

For the molecule `O=C(O)/C=C/c1ccc(O)c(O)c1`, the inhibition was determined as 36.2%.

The molecule `O=C(O)c1cc(O)c(O)c(O)c1` had an inhibition of 60.5%.

With `O=C(O)c1ccc(O)c(O)c1`, the inhibition was 73.3%.

In general, inhibition refers to the drop in the measured response relative to a control, in per cent. A low value points to a response near the control.

Values taken from ChEMBL document CHEMBL1149861, “Inhibition of 15-lipoxygenase-catalysed oxygenation of arachidonic acid by substituted benzoic acids” (Bioorg Med Chem, 2008).
